Laboratory results published in ChEMBL document CHEMBL1156691, “Structure of a novel thrombin inhibitor with an uncharged D-amino acid as P1 residue” (Eur J Med Chem, 2008).

Experiments:
Prothrombin [1] = target: T1, Prothrombin (Homo sapiens, UniProt P00734); assay: Inhibition of human thrombin
Prothrombin [2] = target: T1, Prothrombin; assay: Binding affinity to thrombin

| SMILES | Ki (Prothrombin [1]) | Kd (Prothrombin [2]) |
| --- | --- | --- |
| N=C(N)NCCCC[C@@H](NC(=O)[C@@H](Cc1ccc(O)cc1)NC(=O)[C@@H]1CCN1C(=O)[C@H](CC1CCCCC1)NC(=O)[C@H]1CC[C@H](CNC(=N)N)CC1)C(N)=O | 3 nM |  |
| NCCc1c[nH]c2cc(F)ccc12 |  | 6.9 mM |
